Test results taken from patent US5744478A, “Thiazolo [3,2-a] quinoline and thiazolo [3,2-a] naphthyridine derivatives” (Bayer Aktiengesellschaft, priority 1994, dated 1998).
Converted amounts (≈) assume the structure as drawn.

Key:
Experiment in all cases: MIC by serial dilution on Iso-Sensitest Agar
Format in all cases: cell-based
[1] = tested on: Staphylococcus aureus ICB 25768; conditions: ICB25768, 37° C., about 20 hours, about 10^4 colony-forming particles
Procedure: (§1) The minimum inhibitory concentrations (MIC) of the compounds according to the invention were determined by serial dilution methods on Iso-Sensitest Agar (Oxoid). For each test substance, a number of agar plates were prepared which, in each case at double the dilution, contained decreasing concentrations of the active compound. The agar plates were inoculated using a multipoint inoculator (Denley). For inoculation, overnight cultures of the pathogens were used which had previously been diluted such that each inoculation point contained about 10^4 colony-forming particles. The inoculated agar plates were incubated at 37° C., and the bacterial growth was read off after about 20 hours. The MIC value (μg/ml) indicates the lowest active compound concentration at which no growth was to be observed using the naked eye.

[2] = tested on: Enterococcus faecalis 9790; conditions: 37° C., about 20 hours, about 10^4 colony-forming particles
Procedure: as §1

[3] = tested on: Enterococcus faecalis 27101; conditions: 37° C., about 20 hours, about 10^4 colony-forming particles
Procedure: as §1

E. coli Neumann = conditions: Escherichia coli, 37° C., about 20 hours, about 10^4 colony-forming particles
Procedure: as §1

[4] = tested on: Staphylococcus aureus 133; conditions: 37° C., about 20 hours, about 10^4 colony-forming particles
Procedure: as §1

E. coli ATCC 25922 = conditions: Escherichia coli, ATCC25922, 37° C., about 20 hours, about 10^4 colony-forming particles
Procedure: as §1

[5] = tested on: Staphylococcus aureus ICB 25701; conditions: ICB25701, 37° C., about 20 hours, about 10^4 colony-forming particles
Procedure: as §1

[6] = tested on: Staphylococcus aureus ATCC29213; conditions: 37° C., about 20 hours, about 10^4 colony-forming particles
Procedure: as §1

Providencia sp. 12012 = conditions: 37° C., about 20 hours, about 10^4 colony-forming particles
Procedure: as §1

Klebsiella pneumonia 63 = conditions: Klebsiella pneumoniae, 37° C., about 20 hours, about 10^4 colony-forming particles
Procedure: as §1

[7] = tested on: Klebsiella pneumonia 8085; conditions: Klebsiella pneumoniae, 37° C., about 20 hours, about 10^4 colony-forming particles
Procedure: as §1

Micrococcus luteus 9341 = conditions: 37° C., about 20 hours, about 10^4 colony-forming particles
Procedure: as §1

SMILES	MIC [1] [µg/mL]	MIC [2] [µg/mL]	MIC [3] [µg/mL]	MIC (E. coli Neumann) [µg/mL]	MIC [4] [µg/mL]	MIC (E. coli ATCC 25922) [µg/mL]	MIC [5] [µg/mL]	MIC [6] [µg/mL]	MIC (Providencia sp. 12012) [µg/mL]	MIC (Klebsiella pneumonia 63) [µg/mL]	MIC [7] [µg/mL]	MIC (Micrococcus luteus 9341) [µg/mL]
O=C(O)c1c(=O)c2cc(F)c(N3C[C@@H]4CCCN[C@@H]4C3)c3c2n2c(csc12)CO3 [Example 2]	32 (≈ 77 µM)	0.03 (≈ 0.0722 µM)	0.03 (≈ 0.0722 µM)	≤ 0.015	≤ 0.015	≤ 0.015	0.5 (≈ 1.2 µM)	≤ 0.015	≤ 0.015	≤ 0.015	≤ 0.015	0.125 (≈ 0.301 µM)
CNC1C=CCC2CN(c3c(F)cc4c(=O)c(C(=O)O)c5scc6n5c4c3OC6)CC21 (stereo not drawn) [Example 3, 7-Fluoro-8-(2-methylamino-8-azabicyclo[4.3.0]non-3-en-8-yl)-5-oxo-9,1-(epoxymethano)-5H-thiazolo[3,2-a]quinoline-4-carboxylic acid]	0.5 (≈ 1.13 µM)	≤ 0.015	≤ 0.015	≤ 0.015	≤ 0.015	≤ 0.015	0.06 (≈ 0.136 µM)	≤ 0.015	≤ 0.015	≤ 0.015	≤ 0.015	≤ 0.015
NC1C=CCC2CN(c3c(F)cc4c(=O)c(C(=O)O)c5scc6n5c4c3OC6)CC12 (stereo not drawn) [Example 4, 8-(2-Amino-8-azabicyclo[4.3.0]non-3-en-8-yl)-7-fluoro-5-oxo-9,1-(epoxymethano)-5H-thiazolo[3,2-a]quinoline-4-carboxylic acid]	0.25 (≈ 0.585 µM)	≤ 0.015	≤ 0.015	≤ 0.015	≤ 0.015	≤ 0.015	0.06 (≈ 0.14 µM)	≤ 0.015	≤ 0.015	≤ 0.015	≤ 0.015	≤ 0.015
CC1C=CC(N)C2CN(c3c(F)cc4c(=O)c(C(=O)O)c5scc6n5c4c3OC6)CC12 (stereo not drawn) [Example 5, 8-(2-Amino-5-methyl-8-azabicyclo[4.3.0]non-3-en-8-yl)-7-fluoro-5-oxo-9,1-(epoxymethano)-5H-thiazolo[3,2-a]quinoline-4-carboxylic acid]	0.5 (≈ 1.13 µM)	≤ 0.015	≤ 0.015	≤ 0.015	≤ 0.015	≤ 0.015	0.06 (≈ 0.136 µM)	≤ 0.015	≤ 0.015	≤ 0.015	≤ 0.015	≤ 0.015
